We go through six compounds from ChEMBL document CHEMBL2069208, “Isolactarane and sterpurane sesquiterpenoids from the basidiomycete Phlebia uda” (J Nat Prod, 2012).

Molecules are shown by their SMILES. Calls of active or inactive are those of the source. No cut-off for these calls is given here.

In one test the test system is HepG2. Kind of test: Growth inhibition of human HepG2 cells up to 50 ug/ml. In kind it is functional, cell-based.
Test [1] deals with Jurkat. Kind of test: Growth inhibition of human Jurkat cells. In kind it is functional, cell-based.
The next test deals with Fusarium graminearum. Kind of test: Inhibition of spore germination of Fusarium graminearum assessed as compound concentration causing 75 to 100% germination inhibition. In kind it is functional.
A further test relates to Botrytis cinerea. Kind of test: Inhibition of spore germination of Botrytis cinerea assessed as compound concentration causing 75 to 100% germination inhibition. The class given is functional.
For a further test, the system named is Phytophthora infestans. Kind of test: Inhibition of spore germination of Phytophthora infestans assessed as compound concentration causing 75 to 100% germination inhibition. In kind it is functional.
The subject of another test is Pyricularia grisea. Kind of test: Inhibition of spore germination of Magnaporthe grisea assessed as compound concentration causing 75 to 100% germination inhibition. The class given is functional.
The test system of test [2] is Jurkat. Kind of test: Growth inhibition of human Jurkat cells up to 50 ug/mL. The class given is functional, cell-based.

By IC50 is commonly meant the concentration needed to halve the response being measured. For `CC1=C2C[C@@](C)(C(=O)O)C[C@H]2C[C@]2(C)CC[C@]12O`, in the test on HepG2, the “growth inhibition (GI)” value is “inactive”. The IC50 with Jurkat [1] worked out at 160 µM.

For `CC1(C)CC2=C(C=O)[C@@]34C[C@]3(C[C@@H]2C1)C(=O)OC4O` (stereo not given in full), the INH was 10 µg/mL in the test on Fusarium graminearum, 50 µg/mL in the test with Botrytis cinerea, 25 µg/mL in the test on Phytophthora infestans and 10 µg/mL in the test with Pyricularia grisea.

Turning to `CC1=C2C[C@@](C)(CO)C[C@H]2C[C@]2(C)CC[C@]12O`, the “growth inhibition (GI)” value in the test with Jurkat [2] and in the test on HepG2 was “inactive” each time.

For `CCC(C)CCOC1OC(=O)[C@]23C[C@@H]4CC(C)(C)CC4=C(C=O)[C@]12C3` (mixture of isomers) [UDALACTARANE A], the INH with Fusarium graminearum is 10 µg/mL; in the test with Botrytis cinerea it was above 100 µg/mL; in the test with Phytophthora infestans, 100 µg/mL; in the test on Pyricularia grisea, 10 µg/mL. The “growth inhibition (GI)” value with HepG2 was “inactive”. Also, half-maximal inhibition in the test on Jurkat [1] (IC50) required 101 µM.

With `CC1=C2C[C@@](C)(COC3OC(=O)[C@]45C[C@@H]6CC(C)(C)CC6=C(C=O)[C@]34C5)C[C@H]2C[C@]2(C)CC[C@]12O` (mixture of isomers) [UDALACTARANE B], the INH in the test on Fusarium graminearum was 5 µg/mL; in the test with Botrytis cinerea, above 100 µg/mL; in the test with Phytophthora infestans, 10 µg/mL. Further, the “growth inhibition (GI)” value with HepG2 was “inactive”. In addition, the IC50 with Jurkat [1] is 42 µM.

Take `Cc1cc(C2CCCCC2)n(O)c(=O)c1` [CICLOPIROX]: the INH with Botrytis cinerea came to 50 µg/mL.
